Reference: patent publication US20080119517A1, “COMPOSITIONS AND METHODS FOR PROTECTING AGAINST MITOCHONDRIA COMPONENT-MEDIATED PATHOLOGY” (Cornell Research Foundation, Inc., priority 2003, published 2008)
Entries after “also recorded” stand apart in the source; their conditions may differ.

Key:
[1] = tested on: primary cerebrocortical neurons; test: Oxygen-glucose deprivation (OGD) of cultured primary cerebrocortical neurons; assay type: cell-based, mouse
Method: Heterocyclic-mediated protection was next examined in two models of stroke: (i) oxygen-glucose deprivation (OGD) of cultured primary cerebrocortical neurons, and; (ii) in the mouse, middle cerebral artery occlusion (MCAO)/reperfusion.
Neurotoxicity studies were conducted as previously described. […] Cerebral cortex of mouse embryos at day 15 (E15) were freed from meninges and separated from olfactory bulb and hippocampus.
OGD of primary cerebrocortical neurons is a widely used cell culture model of stroke-related pathology. […] Caspase-3 activation plays a key role in hypoxia/ischemia-mediated injury. To gam insight into the mechanism of promethazine-mediated neuroprotection, it was evaluated whether this compound could inhibit OGD-mediated caspase-3 activation.

[2] = tested on: mouse middle cerebral artery occlusion (MCAO); settings: in vivo
[3] = biological target: calmodulin (Homo sapiens, UniProt P0DP23); test: Calmodulin-dependent calcineurin activity (pNPP hydrolysis); settings: 300 μM compound
[4] = tested on: gerbil ischemia-reperfusion model; settings: cited from earlier work
[5] = tested on: isolated liver mitochondria; test: Four-parameter mitochondrial physiology (oxygen, Ca2+, membrane potential, swelling); assay type: biochemical, rat; settings: 10 μM; for protection against PT induction (swelling, A660): high Ca2+ dose
Method: Mitochondrial physiological parameters were assessed to determine whether these heterocyclics and related compounds interfered direly with mitochondrial functions, and whether such interference might underlie their protection (e.g., respiratory inhibitors can score as protective in some assays, as can uncouplers, but neither would be optimal as a therapeutic candidate). […]; methiothepin [serotonin modulator]; clomipramine [antidepressant]).
FIG. 5 illustrates that the heterocyclic compounds delay PT induction in isolated liver mitochondria without impairing mitochondrial physiology. FIG. 5a depicts oxygen consumption measured by Clark electrode. Oxygen concentration in buffer decreases as the signal decreases. FIG. 5b depicts Ca^2+ transport measured by Ca^2+— selective electrode. The Ca^2+ in buffer increases as the signal increases. FIG. 5c depicts Δψ measured using a TPP^+ electrode. The Δψ parameter decreases as the signal increases. TPP^+ uptake determined by comparison with standard curve after correction for shift in the electrode signal is induced by the compounds examined. […] Changes in Δψ consistent with the slight increases in respiration (equivalent to approximately 5% of maximally uncoupled mitochondria) observed with some drags is likely below the limit of detection. FIG. 5d depicts mitochondrial swelling (absorbance) monitored by a light emitting diode BET) at A660. Mitochondrial are more swollen when signal decreases. Assay in 300 mM sucrose, 2.5 mM K—PO4, 3 mM HERPES, pH 7.2 and 5 mM succinate. Experiments were stopped shortly after oxygen was consumed.
Liver mitochondrial respiration was measured in 250 mM sucrose, 3 mM MgCl2, 0.5 mM EDTA, 10 mM KH2PO4 (pH 7.2). The buffer was equilibrated at 28° C. for not less than an hour before taking measurements. Respiration was initiated by adding mitochondria isolate to the oxygraph cell (0.9±0.2 mg/mL protein). State 3 respiration was initiated with ADP (˜200 μM). The substrates were added at either 5 or 10 mM for α-ketoglutarate and glutamate/malate and 10-20 mM for succinate. Respiration rates were determined using a PC-controlled Strathkelvin Instruments Limited 928 6-Channel Dissolved Oxygen System with two standard Clark-type electrodes fitted to two standard Gilson 1.7-1.8 mL oxygraph cells. Traces were analyzed using the Strathkelvin data acquisition and analysis program included with the instrument. The lines of best fit were calculated and plotted to polarographic traces using the built-in software function based on least squares regression analysis. State 3 respiration rates were calculated when stabilized, i.e., 1.0-1.5 minutes after initiating the state. Respiration before and after ADP consumption was used to calculated RCR. All experiments were carried out in triplicate. All substrates used in mitochondrial respiration experiments were dissolved in respiration buffer (see below) and brought to neutral pH.
The experimental system employed comprises a respiration chamber that can be sealed and placed in a light tight outer chamber. Electrodes and sensors are positioned in a single plane around the outside of the chamber—this system enables simultaneous measurement of oxygen uptake, membrane potential, calcium, and light scattering (absorbance). Oxygen uptake, membrane potential, and Cab are measured using Clark, TPP^+, and Ca^2+-sensitive electrodes, respectively see, Zhu, S., et al., Nature 417:74-78, 2002. A660 is measured using a diode. The chamber is water-jacketed to allow thermostabilization (15-to-1 water volume to sample volume −1 mL, closed chamber). Samples were constantly stirred using a top-mounted magnetic stir bar. Signals measured from electrodes and sensors are recorded on a computer through a commercially available L-154 card. Software has been written to enable data collection and analysis. All experiments were carried out in triplicate. Plots shown in the paper are representative.

[6] = tested on: apoptosis / PT induction; settings: suggested; by reducing mitochondrial oxidative stress; cited from earlier work
[7] = tested on: rabbit models of cerebral and spinal ischemia; settings: in vivo; cited from earlier work
[8] = tested on: PT induction in isolated rat liver mitochondria; test: High throughput spectrophotometric PT-induced swelling assay following Ca2+ challenge; assay type: biochemical; settings: for protection against PT induction, score in the initial screen: 10 μM, blind library screen
From the text: This library was primarily composed of clinically-approved drugs that could readily be moved to late stage pre-clinical trials and then into accelerated clinical trials. […] The remainder of the library largely consisted of some analogues of these drugs, other known bioactive agents (including natural products, toxins and known inhibitors). Screening of this library was blind and was designed to identify compounds that acted independently of antioxidant activity or ability to chelate Ca^2+ (FIG. 2).
Assays were performed on mitochondria energized with succinate, glutamate/malate, or α-ketoglutarate. […] Subsequent assays (see, Table 1) repeated this approach using inducers optimized to overcome protection mediated by chelators (high C^2+ or antioxidants (high tert-butyl hydroperoxide), based on the rationale that it was unlikely to identify novel drug activities in these categories.
Each of these compounds was re-assayed against three models of PT induction and ranked according to the resistance it conferred to induction.
Bars are coded by each drug's therapeutic class. […] Compounds were assayed in triplicate at 7 concentrations (30, 10, 3, 1, 0.3, 0.1, and 0.03 μM) against three different challenges (50 μM Ca^2+/2.5 mM K—PO4, 25 μM Ca^2+/5 mM K—PO4, 25 μM Ca^2+/2.5 mM K—PO4/100 μM tert-butyl hydroperoxide). […] To address potential inaccuracies introduced by calculation of the area under the curve, protection was also assayed as percent absorbance remaining when absorbance of an unprotected sample had dropped and stabilized. […] “N” for each drug is 7 to 9. Horizontal lines show mean and mean plus one standard deviation.

[9] = tested on: humans; settings: human, in vivo; cited from earlier work
[10] = tested on: phospholipase A2 (PLA2); settings: cited from earlier work
[11] = tested on: ischemia-reperfusion injury in multiple models; settings: cited from earlier work

Q: Which “OGD-mediated caspase-3 activation” value [1] does the source give for `CNCCC=C1c2ccccc2CCc2ccccc21` [Nortriptyline] here?
A: inhibits; also recorded: attenuated

Q: What about the “OGD mediated cytochrome C release” value ([1]; Western blot) of the same compound?
A: Inhibiting; also recorded: minimized

Q: And the “OGD cell death as measured by LDH release” value ([1]; nortriptyline)?
A: preventing cell death; also recorded: reduction

Q: And the “infarct (stroke) volume” value [2]?
A: significant reduction

Q: And the “infarct area in coronal slices compared to the controls” value [2]?
A: decreases

Q: What about the “neurological examination following cerebral ischemia” value [2] of the same compound?
A: improves

Q: And the “neuroprotection following MCAO” value [2]?
A: mediates neuroprotection

Q: Which “calmodulin activity (ratio to untreated plate controls)” value [3] does the source give for `CCOC(=O)N1CCC(=C2c3ccc(Cl)cc3CCc3cccnc32)CC1` [Loratadine] here?
A: apparent calmodulin activation

Q: Which results are given for `CN(C)CCCN1c2ccccc2CCc2ccc(Cl)cc21` [Clomipramine]?
A: hippocampal CA1 neuronal damage ([4]; 20 mg/kg): protect; Ca2+ transport [5]: without affecting; initial oxygen consumption prior to PT induction [5]: without affecting; resting or recovered Δψ [5]: without affecting; protection against PT induction (swelling, A660) [5]: protected

Q: For `CN1CCN(CC(=O)N2c3ccccc3C(=O)Nc3cccnc32)CC1` [pirenzepine], which “calmodulin activity (ratio to untreated plate controls)” value [3] is on record?
A: apparent calmodulin activation

Q: For `CSc1ccc2c(c1)N(CCC1CCCCN1C)c1ccccc1S2` (stereo not drawn) [Thioridazine], which PT induction [6] is on record?
A: delay

Q: What about the apoptosis [6] of the same compound?
A: inhibit

Q: Which “protection in the gerbil ischemia model” value ([4]; 5-20 mg/kg) does the source give for `CN1CCN2c3ccccc3Cc3ccccc3C2C1` (stereo not drawn) [Mianserin] here?
A: protects

Q: Which functional impairment [7] does the source give for `CN(C)CCCN1c2ccccc2Sc2ccc(Cl)cc21` [Chlorpromazine] here?
A: reduced

Q: Which results are given for `OCCN1CCN(CCCN2c3ccccc3Sc3ccc(C(F)(F)F)cc32)CC1` [Flufenazine]?
A: Ca2+ transport [5]: without affecting; initial oxygen consumption prior to PT induction [5]: without affecting; resting or recovered Δψ [5]: without affecting; protection against PT induction (swelling, A660) [5]: protected

Q: What does the source list for `CSc1ccc2c(c1)C(N1CCN(C)CC1)Cc1ccccc1S2` (stereo not drawn) [Methiothepin]?
A: Ca2+ transport [5]: without affecting; initial oxygen consumption prior to PT induction [5]: without affecting; resting or recovered Δψ [5]: without affecting; protection against PT induction (swelling, A660) [5]: protected; relative potency as PT inhibitor ([8]; ranking among the heterocyclics): approximately equivalent to promethazine in potency

Q: For `CN1CCN(CCCN2c3ccccc3Sc3ccc(C(F)(F)F)cc32)CC1` [Trifluoperazine], which tolerability in humans [9] is on record?
A: limited utility for long-term use in humans because of its toxicity

Q: What about the “phospholipase A2 (PLA2) inhibition” value [10] of the same compound?
A: can inhibit

Q: And the functional impairment [7]?
A: reduced

Q: And the “protection against PT induction, score in the initial screen” value [8]?
A: moderate

Q: And the “protection against ischemia-reperfusion injury” value [11]?
A: protective

Q: For `CC/C(=C(\c1ccccc1)c1ccc(OCCN(C)C)cc1)c1ccccc1` [tamoxifen], which “protection against PT induction, score in the initial screen” value [8] is on record?
A: moderate
